Source: the supplement of paper PMC10307832

What was measured:
Assay in all cases: relative viability (nuclei count vs DMSO), 5 days (fraction); higher = more cells survive
NCI-H1666 = system: NCI-H1666
Method in brief: (§1)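 Medians of duplicate plates are given as relative viability. That measure is the nuclei count in treated wells divided by the count in vehicle wells. Counts were taken on 4× images of lung cancer cell lines in 1536-well plates, 5 days after pin-tool dosing the day after seeding with one drug alone or a fixed anchor-drug dose plus five library-drug doses (not always all listed) in √10 steps.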

RERF-LC-KJ = system: RERF-LC-KJ
Method in brief: as §1

NCI-H1793 = system: NCI-H1793
Method in brief: as §1

EKVX = system: EKVX
Method in brief: as §1

NCI-H23 = system: NCI-H23
Method in brief: as §1

LCLC-97TM1 = system: LCLC-97TM1
Method in brief: as §1

BEN = system: BEN
Method in brief: as §1

NCI-H838 = system: NCI-H838
Method in brief: as §1

NCI-H2228 = system: NCI-H2228
Method in brief: as §1

NCI-H1915 = system: NCI-H1915
Method in brief: as §1

NCI-H1355 = system: NCI-H1355
Method in brief: as §1

NCI-H2347 = system: NCI-H2347
Method in brief: as §1

LC-2-ad = system: LC-2-ad
Method in brief: as §1

NCI-H1650 = system: NCI-H1650
Method in brief: as §1

PC-3 [JPC-3] = system: PC-3 [JPC-3]
Method in brief: as §1

LOU-NH91 = system: LOU-NH91
Method in brief: as §1

NCI-H1993 = system: NCI-H1993
Method in brief: as §1

NCI-H520 = system: NCI-H520
Method in brief: as §1

LU99A = system: LU99A
Method in brief: as §1

SW 1573 = system: SW 1573
Method in brief: as §1

NCI-H460 = system: NCI-H460
Method in brief: as §1

NCI-H650 = system: NCI-H650
Method in brief: as §1

A-427 = system: A-427
Method in brief: as §1

Compound `O=c1[nH]c2ccccc2n1C1CCN(CCCC(c2ccc(F)cc2)c2ccc(F)cc2)CC1` [Pimozide] + N=C(N)NC(=N)NCCc1ccccc1 [Phenformin] (partner 250 µM) has a relative viability (NCI-H1666; first compound 0.08 µM) of 0.608, a relative viability (NCI-H1666; first compound 0.253 µM) of 0.5 and a relative viability (NCI-H1666; first compound 0.8 µM) of 0.597. For the same compound, the relative viability (NCI-H1666; first compound 2.53 µM) was 0.555, the relative viability (NCI-H1666; first compound 8 µM) was 0.513 and the relative viability (RERF-LC-KJ; first compound 0.08 µM) was 0.416. It also gave a relative viability (RERF-LC-KJ; first compound 0.253 µM) of 0.467, a relative viability (RERF-LC-KJ; first compound 0.8 µM) of 0.409 and a relative viability (RERF-LC-KJ; first compound 2.53 µM) of 0.264. It also gave a relative viability (RERF-LC-KJ; first compound 8 µM) of 0.401, a relative viability (NCI-H1793; first compound 0.253 µM) of 0.29 and a relative viability (NCI-H1793; first compound 0.8 µM) of 0.226. The relative viability (NCI-H1793; first compound 2.53 µM) was 0.237, the relative viability (NCI-H1793; first compound 8 µM) was 0.356 and the relative viability (EKVX; first compound 0.08 µM) was 0.192. For the same compound, the relative viability (EKVX; first compound 0.253 µM) was 0.235, the relative viability (EKVX; first compound 0.8 µM) was 0.201 and the relative viability (EKVX; first compound 2.53 µM) was 0.235. The relative viability (EKVX; first compound 8 µM) was 0.226, the relative viability (NCI-H23; first compound 0.08 µM) was 0.782 and the relative viability (NCI-H23; first compound 0.253 µM) was 0.741. The relative viability (NCI-H23; first compound 0.8 µM) was 0.673, the relative viability (NCI-H23; first compound 2.53 µM) was 0.692 and the relative viability (NCI-H23; first compound 8 µM) was 0.79. It also gave a relative viability (LCLC-97TM1; first compound 0.08 µM) of 0.487, a relative viability (LCLC-97TM1; first compound 0.253 µM) of 0.403 and a relative viability (LCLC-97TM1; first compound 0.8 µM) of 0.356. For the same compound, the relative viability (LCLC-97TM1; first compound 2.53 µM) was 0.418, the relative viability (LCLC-97TM1; first compound 8 µM) was 0.413 and the relative viability (BEN; first compound 0.08 µM) was 0.278. It also gave a relative viability (BEN; first compound 0.253 µM) of 0.274, a relative viability (BEN; first compound 0.8 µM) of 0.258 and a relative viability (BEN; first compound 2.53 µM) of 0.289. For the same compound, the relative viability (BEN; first compound 8 µM) was 0.3, the relative viability (NCI-H838; first compound 0.08 µM) was 0.609 and the relative viability (NCI-H838; first compound 0.253 µM) was 0.636. It also gave a relative viability (NCI-H838; first compound 0.8 µM) of 0.636, a relative viability (NCI-H838; first compound 2.53 µM) of 0.519 and a relative viability (NCI-H838; first compound 8 µM) of 0.562. For the same compound, the relative viability (NCI-H2228; first compound 0.08 µM) was 0.371, the relative viability (NCI-H2228; first compound 0.253 µM) was 0.293 and the relative viability (NCI-H2228; first compound 0.8 µM) was 0.338. For the same compound, the relative viability (NCI-H2228; first compound 2.53 µM) was 0.225, the relative viability (NCI-H2228; first compound 8 µM) was 0.192 and the relative viability (NCI-H1915; first compound 0.08 µM) was 0.363. For the same compound, the relative viability (NCI-H1915; first compound 0.253 µM) was 0.349, the relative viability (NCI-H1915; first compound 0.8 µM) was 0.349 and the relative viability (NCI-H1915; first compound 2.53 µM) was 0.366. For the same compound, the relative viability (NCI-H1915; first compound 8 µM) was 0.367, the relative viability (NCI-H1355; first compound 0.08 µM) was 0.45 and the relative viability (NCI-H1355; first compound 0.253 µM) was 0.435. For the same compound, the relative viability (NCI-H1355; first compound 0.8 µM) was 0.437, the relative viability (NCI-H1355; first compound 2.53 µM) was 0.417 and the relative viability (NCI-H1355; first compound 8 µM) was 0.404. For the same compound, the relative viability (NCI-H2347; first compound 0.253 µM) was 0.474, the relative viability (NCI-H2347; first compound 0.8 µM) was 0.374 and the relative viability (NCI-H2347; first compound 2.53 µM) was 0.451. For the same compound, the relative viability (NCI-H2347; first compound 8 µM) was 0.269, the relative viability (LC-2-ad; first compound 0.08 µM) was 0.573 and the relative viability (LC-2-ad; first compound 0.253 µM) was 0.558. The relative viability (LC-2-ad; first compound 0.8 µM) was 0.571, the relative viability (LC-2-ad; first compound 2.53 µM) was 0.623 and the relative viability (LC-2-ad; first compound 8 µM) was 0.605. The relative viability (NCI-H1650; first compound 0.08 µM) was 0.378, the relative viability (NCI-H1650; first compound 0.253 µM) was 0.45 and the relative viability (NCI-H1650; first compound 0.8 µM) was 0.495. For the same compound, the relative viability (NCI-H1650; first compound 2.53 µM) was 0.418, the relative viability (NCI-H1650; first compound 8 µM) was 0.306 and the relative viability (PC-3 [JPC-3]; first compound 0.08 µM) was 0.357. For the same compound, the relative viability (PC-3 [JPC-3]; first compound 0.253 µM) was 0.469, the relative viability (PC-3 [JPC-3]; first compound 0.8 µM) was 0.451 and the relative viability (PC-3 [JPC-3]; first compound 2.53 µM) was 0.486. The relative viability (PC-3 [JPC-3]; first compound 8 µM) was 0.403, the relative viability (LOU-NH91; first compound 0.08 µM) was 0.43 and the relative viability (LOU-NH91; first compound 0.253 µM) was 0.702. For the same compound, the relative viability (LOU-NH91; first compound 0.8 µM) was 0.677, the relative viability (LOU-NH91; first compound 2.53 µM) was 0.79 and the relative viability (LOU-NH91; first compound 8 µM) was 0.581. For the same compound, the relative viability (NCI-H1993; first compound 0.08 µM) was 0.477, the relative viability (NCI-H1993; first compound 0.253 µM) was 0.509 and the relative viability (NCI-H1993; first compound 0.8 µM) was 0.455. It also gave a relative viability (NCI-H1993; first compound 2.53 µM) of 0.522, a relative viability (NCI-H1993; first compound 8 µM) of 0.49 and a relative viability (NCI-H520; first compound 0.08 µM) of 0.724. It also gave a relative viability (NCI-H520; first compound 0.253 µM) of 0.615, a relative viability (NCI-H520; first compound 0.8 µM) of 0.613 and a relative viability (NCI-H520; first compound 2.53 µM) of 0.623. The relative viability (NCI-H520; first compound 8 µM) was 0.678, the relative viability (LU99A; first compound 0.08 µM) was 0.803 and the relative viability (LU99A; first compound 0.253 µM) was 0.837. The relative viability (LU99A; first compound 0.8 µM) was 0.573, the relative viability (LU99A; first compound 2.53 µM) was 0.765 and the relative viability (LU99A; first compound 8 µM) was 0.897. The relative viability (SW 1573; first compound 0.08 µM) was 0.348, the relative viability (SW 1573; first compound 0.253 µM) was 0.309 and the relative viability (SW 1573; first compound 0.8 µM) was 0.341. It also gave a relative viability (SW 1573; first compound 2.53 µM) of 0.377, a relative viability (SW 1573; first compound 8 µM) of 0.388 and a relative viability (NCI-H460; first compound 0.08 µM) of 0.556. For the same compound, the relative viability (NCI-H460; first compound 0.253 µM) was 0.507, the relative viability (NCI-H460; first compound 0.8 µM) was 0.501 and the relative viability (NCI-H460; first compound 2.53 µM) was 0.516. For the same compound, the relative viability (NCI-H460; first compound 8 µM) was 0.492, the relative viability (NCI-H650; first compound 0.08 µM) was 0.445 and the relative viability (NCI-H650; first compound 0.253 µM) was 0.452. It also gave a relative viability (NCI-H650; first compound 0.8 µM) of 0.417, a relative viability (NCI-H650; first compound 2.53 µM) of 0.467 and a relative viability (NCI-H650; first compound 8 µM) of 0.457. For the same compound, the relative viability (A-427; first compound 0.08 µM) was 0.368, the relative viability (A-427; first compound 0.253 µM) was 0.361 and the relative viability (A-427; first compound 0.8 µM) was 0.36. For the same compound, the relative viability (A-427; first compound 2.53 µM) was 0.238 and the relative viability (A-427; first compound 8 µM) was 0.26.
